Laboratory results as given in US4186194A (priority 1973, dated 1980).

Columns and labels:
surrenalectomized mice = assay: Toxicity in surrenalectomized mice; format: in vivo; conditions: 30 μg dosage
[1] = tested on: Female Hartley guinea-pigs; assay: Delayed hypersensitivity to ovalbumin (cutaneous reaction); format: in vivo, guinea-pig; conditions: Table 2, adjuvant dose 25 μg
Protocol: The delayed hypersensitivity to ovalbumin was measured by cutaneous reaction four weeks after injection; it is expressed by the diameter in millimeters of the erythema (E), of the induration (I) or the necrosis (N), forty-eight hours after sub-cutaneous injection of 10 or 100 μg of ovalbumin.

mastocytome = assay: Activation of macrophages in vitro (cytotoxicity with respect to the mastocytome); format: cell-based; conditions: incubated directly with normal macrophages and with macrophages from an inflammatory peritoneal exsudate (both cases)
Protocol: The activity of the muramyl-dipeptide was measured by directly incubating it with both normal macrophages and macrophages originating from an inflammatory peritoneal exsudate.

guinea pigs = assay: Delayed hypersensitivity with respect to the substances in guinea pigs treated with Freund's complete adjuvant; format: in vivo, guinea pig; conditions: 5 and 10 μg in the dermis of guinea pigs, three weeks after ovalbumine with FIA or FCA
Protocol: Three groups of guinea pigs were injected (in their foot pads) with 1 mg of ovalbumine together with:
(a) Freund's incomplete adjuvant (FIA) and
(b) Freund's complete adjuvent (FCA) respectively.
The delayed hypersensitivity was measured by subcutaneous reaction three weeks thereafter, by injecting 5 mg of ovalbumine and of 5 and 10 μg of either the substance BB and the muramyl-dipeptide in the dermis of the animals.

[2] = tested on: Female Hartley guinea-pigs; assay: Adjuvant activity: rates of antibodies with respect to ovalbumin after injection with incomplete Freund adjuvant and ovalbumin; format: in vivo, guinea-pig; conditions: Table 2; dose 25 μg/animal
Protocol: Female Hartley guinea-pigs of 300-350 g received, in the plantar pad of each of the two rear paws, an emulsion composed of equal parts of incomplete Freund adjuvant and a physiological solution containing ovalbumin (5 mg/guinea-pig) and the preparation to be tested. The incomplete Freund adjuvant (FIA) (that is to say not containing mycobacteria), is the complete adjuvant (FCA) marketed by the DIFCO company were used as controls.
The rates of antibodies with respect to ovalbumin were determined three weeks after injection. The antibody rate is expressed in μg/ml of serum of the antigen-antibody precipitate at the point of equivalents.

[3] = tested on: tumor cells (mastocytome); assay: Antitumor effect of peritoneal macrophages activated in vivo; format: cell-based; conditions: macrophages of mice injected intraperitoneally with 30 μg, recovered 4 days later, incubated with tumor cells
Protocol: The following test takes advantage of the finding made by several authors that macrophages become cytotoxic with respect to neoplasic cells, when they have previously been activated by immuno-adjuvant substances.
Two groups of three mice were injected intraperitoneally with 30 μg of each of the substances respectively. The mice were sacrificed 4 days later. There macrophages were recovered according to the technique of D. Juy, C. Bona and L. Chedid, C. R. Acad. Sc. Paris, 1974, 268, Serie D, 1859 and incubated in the presence of tumor cells (mastocytome).
The inhibition of the mastocytome increase was measured by reference to the reduced incorporation of radioactive thymidine as compared to that of controls.

Compound: CC(=O)N[C@@H]1[C@@H](O[C@H](C)C(=O)N[C@@H](C)C(=O)N[C@H](CCC(=O)O)C(N)=O)[C@H](O)[C@@H](CO)O[C@H]1O [N-acetylmuramyl-L-Ala-D-Glu-NH2, 2-(2-acetamido-2-desoxy-3-O-D-glucopyranosyl)-D-propionyl-L-Ala-(γ-OH)-D-α-Glu NH2]
- Toxicity (surrenalectomized mice): no detectable toxicity
- Delayed Hypersensitivity, erythema (E) ([1]; 10 μg ovalbumin injection): 9 millimeters
- Delayed Hypersensitivity, erythema (E) ([1]; 100 μg ovalbumin injection): 17 millimeters
- Increase in vitro of the cytotoxicity of the macrophages with respect to the mastocytome (mastocytome): capable of increasing in vitro the cytotoxicity of the macrophages
- Delayed hypersensitivity reaction to the substance (guinea pigs): dit not induce any detectable reaction
- Antibody/antiovalbumin, Average [2]: 5210 µg/mL
- Antibody/antiovalbumin, animal 1 [2]: 5280 µg/mL
- Antibody/antiovalbumin, animal 2 [2]: 6000 µg/mL
- Antibody/antiovalbumin, animal 3 [2]: 2960 µg/mL
- Antibody/antiovalbumin, animal 4 [2]: 6880 µg/mL
- Antibody/antiovalbumin, animal 5 [2]: 4960 µg/mL
- Inhibition of the mastocytome increase (reduced incorporation of radioactive thymidine compared to controls) [3]: 84%
